Test [1] deals with Serine/threonine-protein kinase 16 (Homo sapiens) (UniProt O75716). Description: Inhibition of MPSK1 at 1.0 µM in the ActivX. The following applies: Compound concentration 1.0 uM.
The target in test [2] is Cyclin-dependent kinase 5 (Homo sapiens) (UniProt Q00535). Description: % inhibition of CDK5 in the DiscoverX Kinase panel at 1.0 µM. The settings on record: Compound concentration 1.0 uM.
Test [3] deals with Cyclin-dependent kinase 4 (Homo sapiens) (UniProt P11802). Description: Inhibition of CDK4 at 1.0 µM in the ActivX. The following applies: Compound concentration 1.0 uM.
In test [4] the target is Cyclin-dependent kinase 14 (Homo sapiens) (UniProt O94921). Description: Inhibition of CDK14 at 1.0 µM in the ActivX. The following applies: Compound concentration 1.0 uM.
In test [5] the target is Cyclin-dependent kinase 7 (Homo sapiens, UniProt P50613, C312S). Description: In vitro pharmacodynamics: p-RNA pol II Ser-5 (CDK7 C312S) ( QuantiGene Plex Gene Expression Assay: downregulation at the messenger level of superenhancer driven genes. The level of phosphorylation of Serine 5 on RNA pol II Vs totalRNA pol II is determined. The level of p-RNA pol II Ser-5 detected and stained with primary (a specific rabbit Phospho-Rpb1 CTD (Ser5) antibody) and secondary antibodies (a goat anti rabbit Alexa Fluor 488 conjugated secondary antibody) after 3 hrs incubation with probe.). It counts as functional.

The target in test [6] is Cyclin-dependent kinase 13 (Homo sapiens) (UniProt Q14004). Description: % inhibition of CDK13 in the DiscoverX Kinase panel at 1.0 µM. The following applies: Compound concentration 1.0 uM.
Test [7] concerns the target T1, CDK7/Cyclin H/MNAT1 (Homo sapiens) (UniProt P51946+P50613+P51948). Description: Biochemical CDK7 assay (kinact/KIapp) ( CDK7 catalyzed, ATP-dependent, phosphorylation of a peptide substrate derived from RNA Pol II (CDK7/9-tide). Coupled via lactate dehydrogenase (LDH) and pyruvate kinase (PK) to lactate and NAD+ production, with concomitant depletion of NADH. Continuous coupled assay measures CDK7 catalytic activity through the diminished absorbance intensity at 340 nm that corresponds with NADH depletion.). Format: functional.

Test [8] addresses Cyclin-dependent kinase 15 (Homo sapiens) (UniProt Q96Q40). Description: % inhibition of CDK15 in the DiscoverX Kinase panel at 1.0 µM. The settings on record: Compound concentration 1.0 uM.
Test [9] concerns the target Cyclin-dependent kinase 16 (Homo sapiens) (UniProt Q00536). Description: Inhibition of CDK16 at 1.0 µM in the ActivX. The settings on record: Compound concentration 1.0 uM.
The target of test [10] is Cyclin-dependent kinase 10 (Homo sapiens) (UniProt Q15131). Description: Inhibition of CDK10 at 1.0 µM in the ActivX. The settings on record: Compound concentration 1.0 uM.
Test [11] addresses Cyclin-dependent kinase 18 (Homo sapiens) (UniProt Q07002). Description: % inhibition of CDK18 in the DiscoverX Kinase panel at 1.0 µM. The settings on record: Compound concentration 1.0 uM.
Test [12] deals with Cyclin-dependent kinase 12 (Homo sapiens) (UniProt Q9NYV4). Description: Inhibition of CDK12 at 1.0 µM in the ActivX. The following applies: Compound concentration 1.0 uM.
In test [13] the target is Cyclin-dependent kinase 3 (Homo sapiens) (UniProt Q00526). Description: % inhibition of CDK3 in the DiscoverX Kinase panel at 1.0 µM. The settings on record: Compound concentration 1.0 uM.
The target in test [14] is Cyclin-dependent kinase 18 (Homo sapiens) (UniProt Q07002). Description: Inhibition of CDK18 at 1.0 µM in the ActivX. The settings on record: Compound concentration 1.0 uM.
The target of test [15] is Cyclin-dependent kinase 17 (Homo sapiens) (UniProt Q00537). Description: % inhibition of CDK17 in the DiscoverX Kinase panel at 1.0 µM. The settings on record: Compound concentration 1.0 uM.
Test [16] concerns the target Cyclin-dependent kinase 13 (Homo sapiens) (UniProt Q14004). Description: Inhibition of CDK13 at 1.0 µM in the ActivX. The settings on record: Compound concentration 1.0 uM.
In test [17] the target is Cyclin-dependent kinase 5 (Homo sapiens) (UniProt Q00535). Description: Inhibition of CDK5 at 1.0 µM in the ActivX. The following applies: Compound concentration 1.0 uM.
For test [18], the target named is Cyclin-dependent kinase 14 (Homo sapiens) (UniProt O94921). Description: % inhibition of CDK14 in the DiscoverX Kinase panel at 1.0 µM. The following applies: Compound concentration 1.0 uM.
Test [19] addresses Cyclin-dependent kinase 2 (Homo sapiens) (UniProt P24941). Description: % inhibition of CDK2 in the DiscoverX Kinase panel at 1.0 µM. The following applies: Compound concentration 1.0 uM.
Test [20] addresses T2, Cyclin-dependent kinase 7 (Homo sapiens, UniProt P50613). Description: % inhibition of CDK7 in the DiscoverX Kinase panel at 1.0 µM.
The target in test [21] is T3, Cyclin-dependent kinase 11A/B (Homo sapiens) (UniProt Q9UQ88+P21127). Description: % inhibition of CDK11 in the DiscoverX Kinase panel at 1.0 µM. Format: protein assay. The following applies: Compound concentration 1.0 uM.
The target of test [22] is T4, Cyclin-dependent kinase 9 (Homo sapiens, UniProt P50750). Description: Inhibition of CDK9 at 1.0 µM in the ActivX. The settings on record: Compound concentration 1.0 uM.
For test [23], the target named is T2, Cyclin-dependent kinase 7. Description: Inhibition of CDK7 at 1.0 µM in the ActivX. The following applies: Compound concentration 1.0 uM.
For test [24], the target named is Cyclin-dependent kinase 11B (Homo sapiens) (UniProt P21127). Description: Inhibition of CDK11b at 1.0 µM in the ActivX. The following applies: Compound concentration 1.0 uM.
For test [25], the target named is Cyclin-dependent kinase 1 (Homo sapiens) (UniProt P06493). Description: Inhibition of CDK1 at 1.0 µM in the ActivX. The settings on record: Compound concentration 1.0 uM.
In test [26] the target is Cyclin-dependent kinase 8 (Homo sapiens) (UniProt P49336). Description: % inhibition of CDK8 in the DiscoverX Kinase panel at 1.0 µM. The settings on record: Compound concentration 1.0 uM.
For test [27], the target named is T2, Cyclin-dependent kinase 7. Description: In vitro pharmacodynamics: p-RNA pol II Ser-5 (wtCDK7) ( QuantiGene Plex Gene Expression Assay: downregulation at the messenger level of superenhancer driven genes. The level of phosphorylation of Serine 5 on RNA pol II Vs totalRNA pol II is determined. The level of p-RNA pol II Ser-5 detected and stained with primary (a specific rabbit Phospho-Rpb1 CTD (Ser5) antibody) and secondary antibodies (a goat anti rabbit Alexa Fluor 488 conjugated secondary antibody) after 3 hrs incubation with probe.). Format: functional.

Test [28] deals with T3, Cyclin-dependent kinase 11A/B (Homo sapiens). Description: Inhibition of CDK11 at 1.0 µM in the ActivX. It counts as protein assay. The settings on record: Compound concentration 1.0 uM.
The target of test [29] is Cyclin-dependent kinase 11B (Homo sapiens) (UniProt P21127). Description: % inhibition of CDK11b in the DiscoverX Kinase panel at 1.0 µM. The following applies: Compound concentration 1.0 uM.
Test [30] concerns the target Cyclin-dependent kinase 4 (Homo sapiens) (UniProt P11802). Description: % inhibition of CDK4 in the DiscoverX Kinase panel at 1.0 µM. The following applies: Compound concentration 1.0 uM.
The target of test [31] is Cyclin-dependent kinase 17 (Homo sapiens) (UniProt Q00537). Description: Inhibition of CDK17 at 1.0 µM in the ActivX. The following applies: Compound concentration 1.0 uM.
The target of test [32] is Cyclin-dependent kinase 15 (Homo sapiens) (UniProt Q96Q40). Description: Inhibition of CDK15 at 1.0 µM in the ActivX. The settings on record: Compound concentration 1.0 uM.
Test [33] addresses T1, CDK7/Cyclin H/MNAT1 (Homo sapiens). Description: Biochemical CDK7 assay (KIapp) ( CDK7 catalyzed, ATP-dependent, phosphorylation of a peptide substrate derived from RNA Pol II (CDK7/9-tide). Coupled via lactate dehydrogenase (LDH) and pyruvate kinase (PK) to lactate and NAD+ production, with concomitant depletion of NADH. Continuous coupled assay measures CDK7 catalytic activity through the diminished absorbance intensity at 340 nm that corresponds with NADH depletion.). It counts as functional.

Test [34] addresses Cyclin-dependent kinase 6 (Homo sapiens) (UniProt Q00534). Description: Inhibition of CDK6 at 1.0 µM in the ActivX. The following applies: Compound concentration 1.0 uM.
Test [35] deals with Cyclin-dependent kinase 2 (Homo sapiens) (UniProt P24941). Description: Inhibition of CDK2 at 1.0 µM in the ActivX. The following applies: Compound concentration 1.0 uM.
Test [36] addresses Calcium/calmodulin-dependent protein kinase kinase 2 (Homo sapiens) (UniProt Q96RR4). Description: Inhibition of CAMKK2 at 1.0 µM in the ActivX. The settings on record: Compound concentration 1.0 uM.
Test [37] concerns the target T4, Cyclin-dependent kinase 9. Description: % inhibition of CDK9 in the DiscoverX Kinase panel at 1.0 µM.
Test [38] addresses Cyclin-dependent kinase 16 (Homo sapiens) (UniProt Q00536). Description: % inhibition of CDK16 in the DiscoverX Kinase panel at 1.0 µM. The settings on record: Compound concentration 1.0 uM.
The target of test [39] is Cyclin-dependent kinase 8 (Homo sapiens) (UniProt P49336). Description: Inhibition of CDK8 at 1.0 µM in the ActivX. The following applies: Compound concentration 1.0 uM.
The target of test [40] is Cyclin-dependent kinase 20 (Homo sapiens) (UniProt Q8IZL9). Description: Inhibition of CDK20 at 1.0 µM in the ActivX. The following applies: Compound concentration 1.0 uM.
The target of test [41] is T2, Cyclin-dependent kinase 7. Description: Fluorescent end-point assay ( KM ATP app ~30 µM). Format: functional.

The results in this text go back to ChEMBL document CHEMBL5723588, “Data for DCP probe JNJ-3738” (2024).

Calls of active or inactive are those of the source. No cut-off for these calls is given here.

The term inhibition denotes the change of the read-out against control, counted positive when it falls. As usually defined, the IC50 is the concentration that inhibits the measured activity by half.

T4 sequence (P50750 whole entry): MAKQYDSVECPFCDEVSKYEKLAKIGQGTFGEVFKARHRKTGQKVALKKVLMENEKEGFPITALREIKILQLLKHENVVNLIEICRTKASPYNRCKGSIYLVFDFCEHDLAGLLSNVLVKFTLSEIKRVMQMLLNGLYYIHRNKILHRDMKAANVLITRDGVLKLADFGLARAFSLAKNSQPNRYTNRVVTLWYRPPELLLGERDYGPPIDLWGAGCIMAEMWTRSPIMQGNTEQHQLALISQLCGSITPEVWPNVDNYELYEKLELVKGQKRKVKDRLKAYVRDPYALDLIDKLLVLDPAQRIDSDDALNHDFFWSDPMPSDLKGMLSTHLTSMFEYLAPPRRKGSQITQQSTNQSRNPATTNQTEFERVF
T2 sequence (P50613 whole entry): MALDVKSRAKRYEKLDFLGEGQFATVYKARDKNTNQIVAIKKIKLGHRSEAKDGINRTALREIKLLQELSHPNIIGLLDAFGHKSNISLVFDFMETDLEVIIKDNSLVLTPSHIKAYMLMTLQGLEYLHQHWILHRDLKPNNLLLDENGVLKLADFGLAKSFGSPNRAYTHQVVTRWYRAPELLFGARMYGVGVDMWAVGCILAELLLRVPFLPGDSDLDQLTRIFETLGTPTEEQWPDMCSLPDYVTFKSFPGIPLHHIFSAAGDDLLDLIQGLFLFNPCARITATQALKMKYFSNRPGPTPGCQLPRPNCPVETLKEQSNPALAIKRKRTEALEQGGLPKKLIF
Cyclin-dependent kinase 15 (Homo sapiens), sequence (Q96Q40 whole entry): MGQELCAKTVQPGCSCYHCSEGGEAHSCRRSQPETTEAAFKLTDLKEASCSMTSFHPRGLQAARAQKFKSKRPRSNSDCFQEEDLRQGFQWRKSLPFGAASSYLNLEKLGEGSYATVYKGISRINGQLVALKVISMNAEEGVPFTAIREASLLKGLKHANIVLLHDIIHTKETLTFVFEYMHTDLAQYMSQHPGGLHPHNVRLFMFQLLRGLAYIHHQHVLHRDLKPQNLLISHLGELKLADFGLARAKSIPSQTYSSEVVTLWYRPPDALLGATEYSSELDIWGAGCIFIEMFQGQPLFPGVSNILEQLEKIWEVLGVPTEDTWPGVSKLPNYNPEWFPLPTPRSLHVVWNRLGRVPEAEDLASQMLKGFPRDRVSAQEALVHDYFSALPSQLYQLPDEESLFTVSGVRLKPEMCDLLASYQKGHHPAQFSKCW
Cyclin-dependent kinase 4 (Homo sapiens), sequence (P11802 whole entry): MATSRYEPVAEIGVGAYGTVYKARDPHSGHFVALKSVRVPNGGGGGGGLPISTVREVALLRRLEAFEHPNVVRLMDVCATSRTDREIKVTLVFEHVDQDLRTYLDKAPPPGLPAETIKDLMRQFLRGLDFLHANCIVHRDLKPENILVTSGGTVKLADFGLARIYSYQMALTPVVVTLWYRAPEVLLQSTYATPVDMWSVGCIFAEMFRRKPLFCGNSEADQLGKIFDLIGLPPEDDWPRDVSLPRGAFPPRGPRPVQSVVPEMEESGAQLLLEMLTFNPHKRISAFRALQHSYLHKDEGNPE
Cyclin-dependent kinase 16 (Homo sapiens), sequence (Q00536 whole entry): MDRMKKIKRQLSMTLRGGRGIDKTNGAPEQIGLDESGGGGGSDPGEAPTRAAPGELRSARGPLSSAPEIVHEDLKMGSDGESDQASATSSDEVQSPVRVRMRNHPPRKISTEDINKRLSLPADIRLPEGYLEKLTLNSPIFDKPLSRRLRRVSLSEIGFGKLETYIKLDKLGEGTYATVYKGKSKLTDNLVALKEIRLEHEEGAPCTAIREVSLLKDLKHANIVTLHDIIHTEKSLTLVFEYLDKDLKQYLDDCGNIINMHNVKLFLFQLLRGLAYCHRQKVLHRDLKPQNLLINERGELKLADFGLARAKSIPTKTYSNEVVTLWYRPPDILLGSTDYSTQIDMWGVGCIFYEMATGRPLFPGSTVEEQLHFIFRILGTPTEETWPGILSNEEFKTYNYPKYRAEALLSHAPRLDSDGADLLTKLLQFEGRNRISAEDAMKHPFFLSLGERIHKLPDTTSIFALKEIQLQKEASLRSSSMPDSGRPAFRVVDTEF
Cyclin-dependent kinase 8 (Homo sapiens), sequence (P49336 whole entry): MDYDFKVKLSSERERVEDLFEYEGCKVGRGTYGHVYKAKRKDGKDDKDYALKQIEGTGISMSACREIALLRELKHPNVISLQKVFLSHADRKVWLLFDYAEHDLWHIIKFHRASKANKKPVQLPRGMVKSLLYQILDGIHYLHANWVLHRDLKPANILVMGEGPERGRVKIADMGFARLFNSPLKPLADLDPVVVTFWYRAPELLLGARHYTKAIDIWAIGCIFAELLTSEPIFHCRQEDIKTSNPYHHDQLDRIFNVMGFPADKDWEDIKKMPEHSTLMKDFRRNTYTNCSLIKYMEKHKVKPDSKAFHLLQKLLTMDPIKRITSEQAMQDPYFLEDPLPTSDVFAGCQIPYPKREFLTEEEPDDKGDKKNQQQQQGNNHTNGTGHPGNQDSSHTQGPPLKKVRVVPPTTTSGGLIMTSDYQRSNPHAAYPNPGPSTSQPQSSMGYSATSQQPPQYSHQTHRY
Cyclin-dependent kinase 17 (Homo sapiens), sequence (Q00537 whole entry, looked up): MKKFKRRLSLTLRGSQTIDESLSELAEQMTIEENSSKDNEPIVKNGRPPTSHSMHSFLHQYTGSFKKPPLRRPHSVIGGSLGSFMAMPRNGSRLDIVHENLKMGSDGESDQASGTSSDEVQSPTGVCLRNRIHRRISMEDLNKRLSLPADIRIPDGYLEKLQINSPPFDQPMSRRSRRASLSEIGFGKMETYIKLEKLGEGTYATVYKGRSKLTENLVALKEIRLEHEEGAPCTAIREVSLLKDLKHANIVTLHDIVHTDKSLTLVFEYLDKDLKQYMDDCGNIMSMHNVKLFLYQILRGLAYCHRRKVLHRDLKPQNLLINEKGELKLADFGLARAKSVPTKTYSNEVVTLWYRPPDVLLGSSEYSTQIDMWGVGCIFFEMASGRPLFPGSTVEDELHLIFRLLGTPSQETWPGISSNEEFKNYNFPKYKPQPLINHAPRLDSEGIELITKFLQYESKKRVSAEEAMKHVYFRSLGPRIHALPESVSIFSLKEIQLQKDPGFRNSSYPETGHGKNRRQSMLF
Cyclin-dependent kinase 18 (Homo sapiens), sequence (Q07002 whole entry): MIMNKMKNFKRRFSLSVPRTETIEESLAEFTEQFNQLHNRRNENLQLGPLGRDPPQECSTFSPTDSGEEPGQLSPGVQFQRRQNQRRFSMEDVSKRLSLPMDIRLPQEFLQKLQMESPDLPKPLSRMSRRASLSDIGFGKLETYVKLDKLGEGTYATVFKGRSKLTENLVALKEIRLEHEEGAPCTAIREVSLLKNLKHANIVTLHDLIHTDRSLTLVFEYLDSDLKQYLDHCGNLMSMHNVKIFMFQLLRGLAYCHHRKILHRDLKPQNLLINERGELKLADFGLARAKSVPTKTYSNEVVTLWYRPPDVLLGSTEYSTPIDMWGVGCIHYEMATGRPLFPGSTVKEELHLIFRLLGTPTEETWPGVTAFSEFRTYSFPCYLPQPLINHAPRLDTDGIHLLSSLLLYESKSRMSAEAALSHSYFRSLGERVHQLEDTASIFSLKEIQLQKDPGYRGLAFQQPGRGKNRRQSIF
Cyclin-dependent kinase 5 (Homo sapiens), sequence (Q00535 whole entry, looked up): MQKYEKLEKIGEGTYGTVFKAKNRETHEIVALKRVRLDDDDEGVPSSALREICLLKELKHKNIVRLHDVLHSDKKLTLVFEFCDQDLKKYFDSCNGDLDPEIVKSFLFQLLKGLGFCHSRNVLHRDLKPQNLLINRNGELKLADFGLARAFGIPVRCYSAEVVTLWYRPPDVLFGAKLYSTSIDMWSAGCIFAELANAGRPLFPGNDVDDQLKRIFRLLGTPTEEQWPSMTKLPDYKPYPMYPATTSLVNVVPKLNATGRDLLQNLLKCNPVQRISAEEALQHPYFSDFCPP
Cyclin-dependent kinase 7 (Homo sapiens, UniProt P50613, C312S), sequence (P50613 2-346 C312S limits assumed): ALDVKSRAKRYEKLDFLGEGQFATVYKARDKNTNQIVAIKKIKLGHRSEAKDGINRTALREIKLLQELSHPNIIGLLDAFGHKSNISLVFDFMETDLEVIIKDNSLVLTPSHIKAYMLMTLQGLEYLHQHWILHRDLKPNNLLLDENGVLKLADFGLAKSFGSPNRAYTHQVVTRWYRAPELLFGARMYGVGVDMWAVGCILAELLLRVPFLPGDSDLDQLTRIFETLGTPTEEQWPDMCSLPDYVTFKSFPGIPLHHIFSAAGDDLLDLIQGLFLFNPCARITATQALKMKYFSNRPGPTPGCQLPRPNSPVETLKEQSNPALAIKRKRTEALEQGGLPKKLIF
Cyclin-dependent kinase 14 (Homo sapiens), sequence (O94921 whole entry): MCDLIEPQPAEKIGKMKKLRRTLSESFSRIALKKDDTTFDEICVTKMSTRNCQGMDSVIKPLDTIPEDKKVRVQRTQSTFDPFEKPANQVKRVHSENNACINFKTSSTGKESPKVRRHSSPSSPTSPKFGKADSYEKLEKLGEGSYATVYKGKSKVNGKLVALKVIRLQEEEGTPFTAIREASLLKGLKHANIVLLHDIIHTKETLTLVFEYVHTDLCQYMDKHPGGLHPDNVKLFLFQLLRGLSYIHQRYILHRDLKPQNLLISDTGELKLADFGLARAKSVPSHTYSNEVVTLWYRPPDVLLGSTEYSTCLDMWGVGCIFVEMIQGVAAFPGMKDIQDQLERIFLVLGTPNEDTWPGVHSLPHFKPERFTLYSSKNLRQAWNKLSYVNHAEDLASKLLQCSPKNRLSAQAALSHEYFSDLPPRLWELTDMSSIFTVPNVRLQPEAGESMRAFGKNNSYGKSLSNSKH
Cyclin-dependent kinase 20 (Homo sapiens), sequence (Q8IZL9 whole entry): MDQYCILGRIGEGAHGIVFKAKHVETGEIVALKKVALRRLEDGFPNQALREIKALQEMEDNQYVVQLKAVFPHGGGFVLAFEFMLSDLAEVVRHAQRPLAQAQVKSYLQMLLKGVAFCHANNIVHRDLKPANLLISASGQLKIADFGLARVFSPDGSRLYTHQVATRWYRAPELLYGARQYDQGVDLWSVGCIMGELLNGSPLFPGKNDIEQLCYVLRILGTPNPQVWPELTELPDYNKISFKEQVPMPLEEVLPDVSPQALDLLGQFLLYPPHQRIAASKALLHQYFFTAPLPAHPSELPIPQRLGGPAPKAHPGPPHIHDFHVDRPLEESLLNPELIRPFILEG

As to `CC#CC(=O)N1CC(N2CCC(c3cc(C)c4c(c3)Nc3ncnc(N5CCS(=O)(=O)CC5)c3[C@@H](C)O4)CC2)C1`, the inhibition in [1] was 65%; in test [2] it was 5%; in test [3] it was 0%; in [4], 11%; in [6], 12%; in [8], 21%. The inhibition in test [9] was 1%; in [10] it was 3%; in test [11] it was 25%; in test [12] it was 11%; in test [13], 14%; in test [14] it was 19%. In addition, the inhibition in [15] is 2%; in test [16], 13%; in [17] it was 2%; in test [18] it was 5%; in test [19], 10%; in test [20] (Compound concentration 1.0 uM), 99%. Also, the inhibition in test [21] is 11%; in test [22], 45%; in test [23] it was 95%; in test [24], 5%; in test [25] it was 11%; in [26], greater than 2%. The inhibition in test [28] was 7%; in [29], 0%; in test [30], 10%; in test [31], 17%; in [32], 15%; in test [34], 0%. In addition, the inhibition in test [35] was 6%; in test [36], 70%; in [37] (Compound concentration 1.0 uM), 36%; in test [38] it was 5%; in [39], 7%; in test [40], 5%. In addition, the IC50 is > 10000 nM (not active) in test [5], 3.8 nM in [20], 58 nM (active) in [27] and 933 nM in test [37]. Moreover, the kinact/KIapp in test [7] is 2600 M⁻¹ s⁻¹. The KIapp in test [33] was 31 nM.
On to `CC(=O)N1CC(N2CCC(c3cc(C)c4c(c3)Nc3ncnc(N5CCS(=O)(=O)CC5)c3[C@@H](C)O4)CC2)C1`, for which the IC50 in test [5] was > 10000 nM (not active); in [41], ~200 nM (not active); in test [27], > 10000 nM (not active).
